Experimental data from PubChem BioAssay (NCI).
Values joined by “and” are separate entries in the source; they are usually repeats but may differ in a detail not shown here. Equal entries are not always repeated.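 The compound was tested at five concentrations on cells cultured in 96-well plates, with a 48-hour exposure period. GI50 = concentration required for 50% inhibition of growth. TGI denotes the concentration required for complete inhibition of growth.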 *1 amine or outer side, *2 acyl side, *3 side chain or, on linkers, in order; H or OH if unused. Where a SMILES comes first, the peptide text is derived from it. CO = O=C([*:1])[*:2]

Experiments:
Test in all cases: NCI anticancer screen, dose series, 48 h
[1] = tested on: CAKI-1 renal
[2] = tested on: HS 578T breast
[3] = tested on: HT29 colon
[4] = tested on: K-562 leukemia
[5] = tested on: NCI-H460 lung
[6] = tested on: NCI-H522 lung
[7] = tested on: OVCAR-3 ovarian
[8] = tested on: OVCAR-5 ovarian
[9] = tested on: OVCAR-8 ovarian
[10] = tested on: UACC-62 melanoma

COc1cc(/C=C2\C[C@H]3[C@@H]4CC=C5C[C@@H](OC(C)=O)CC[C@]5(C)[C@H]4CC[C@]3(C)[C@H]2OC(C)=O)ccc1OCCCn1ccnc1
GI50 [1]: 7.05 µM
TGI [1]: 15.8 µM
GI50 [2]: 5.85 µM
TGI [2]: 16.5 µM
GI50 [3]: 18.5 µM
TGI [3]: > 50 µM
GI50 [4]: 5.59 µM
TGI [4]: 19.7 µM
GI50 [5]: 9.2 µM
TGI [5]: 22.9 µM
GI50 [6]: 12.8 µM
TGI [6]: > 36.3 µM
GI50 [7]: 12.3 µM
TGI [7]: 26.2 µM
GI50 [8]: 12.7 µM
TGI [8]: 33.6 µM
GI50 [9]: 10.7 µM
TGI [9]: 24.7 µM
GI50 [10]: 8.81 µM
TGI [10]: 16.1 µM

O=C(CSc1nc2sc3c(c2c(=O)n1-c1ccccc1)CCCCC3)N/N=C/c1ccc(F)cc1
GI50 [1]: 3.18 µM
TGI [1]: 13.5 µM
GI50 [2]: 1.01 µM
TGI [2]: 4.96 µM
GI50 [3]: 2.4 µM
TGI [3]: 7.04 µM
GI50 [4]: 5.48 µM
TGI [4]: > 100 µM
GI50 [5]: 1.12 µM
TGI [5]: 2.98 µM
GI50 [6]: 6.77 µM
TGI [6]: 33 µM
GI50 [7]: 1.78 µM
TGI [7]: 4.07 µM
GI50 [8]: 3.76 µM
TGI [8]: 20.6 µM
GI50 [9]: 1.58 µM
TGI [9]: 5.19 µM
GI50 [10]: 11.4 µM
TGI [10]: 27.1 µM

CC(C)C(NC(=O)C(CCCN=C(N)N)NC(=O)NC(Cc1ccccc1)C(=O)O)C(=O)NC(C=O)CCCN=C(N)N (stereo not drawn) ({Phe-CO}-Arg-Val-Arg-aldehyde; configuration not given here)
GI50 [1]: > 5 µM
TGI [1]: > 5 µM
GI50 [2]: > 5 µM
TGI [2]: > 5 µM
GI50 [3]: > 5 µM
TGI [3]: > 5 µM
GI50 [4]: > 5 µM
TGI [4]: > 5 µM
GI50 [5]: > 5 µM
TGI [5]: > 5 µM
GI50 [6]: > 5 µM
TGI [6]: > 5 µM
GI50 [7]: > 5 µM
TGI [7]: > 5 µM
GI50 [8]: > 5 µM
TGI [8]: > 5 µM
GI50 [9]: > 5 µM
TGI [9]: > 5 µM
GI50 [10]: > 5 µM
TGI [10]: > 5 µM

Cc1cc(Nc2ncc(Cl)c(Nc3ccccc3S(=O)(=O)C(C)C)n2)c(OC(C)C)cc1C1CCNCC1
GI50 [1]: 1.87 µM
TGI [1]: 5.29 µM
GI50 [2]: 1.66 µM and 1.94 µM and 1.61 µM
TGI [2]: 5.25 µM and 5.34 µM and 4.48 µM
GI50 [3]: 0.237 µM and 0.304 µM
TGI [3]: 1.24 µM and 1.27 µM
GI50 [4]: 1.39 µM
TGI [4]: 3.82 µM
GI50 [5]: 1.2 µM
TGI [5]: 2.83 µM
GI50 [6]: 1.52 µM
TGI [6]: 3.06 µM
GI50 [7]: 1.61 µM and 1.37 µM
TGI [7]: 3.01 µM and 2.66 µM
GI50 [8]: 1.14 µM and 0.714 µM and 0.644 µM
TGI [8]: 2.38 µM and 2.13 µM and 2.15 µM
GI50 [9]: 1.74 µM and 1.41 µM
TGI [9]: 3.59 µM and 4.23 µM
GI50 [10]: 1.49 µM and 1.17 µM
TGI [10]: 2.84 µM and 2.43 µM

CC(=O)NC(Cc1c[nH]c2ccccc12)C(=O)O (stereo not drawn)
TGI [1]: > 100 µM
TGI [2]: > 100 µM
TGI [3]: > 100 µM
TGI [4]: > 100 µM
TGI [5]: > 100 µM
TGI [6]: > 100 µM
TGI [7]: > 100 µM
TGI [8]: > 100 µM
TGI [9]: > 100 µM
TGI [10]: > 100 µM

COc1ccc(/C(Cl)=C(\C=O)c2cc(OC)c(OC)c(OC)c2)cc1OC
TGI [1]: > 100 µM
TGI [2]: > 100 µM
TGI [3]: 87.7 µM
TGI [4]: > 100 µM
TGI [5]: > 100 µM
TGI [6]: 48.8 µM
TGI [7]: > 100 µM
TGI [8]: > 100 µM
TGI [9]: > 63.5 µM
TGI [10]: > 100 µM

COc1cc2c3c(n(CCCn4ccnc4)c(=O)c2cc1OC)-c1ccccc1C3=O
GI50 [1]: < 0.01 µM
TGI [1]: 0.105 µM
GI50 [2]: 11.6 µM
TGI [2]: > 100 µM
GI50 [3]: < 0.0406 µM
TGI [3]: 0.603 µM
GI50 [4]: < 0.0155 µM
GI50 [5]: < 0.01 µM
TGI [5]: 4.77 µM
GI50 [6]: < 0.01 µM
TGI [6]: 0.0612 µM
GI50 [7]: < 0.0471 µM
TGI [7]: 0.484 µM
GI50 [8]: 0.26 µM
TGI [8]: 1.25 µM
GI50 [9]: 0.0584 µM
TGI [9]: 4.84 µM
GI50 [10]: < 0.0133 µM
TGI [10]: 0.0906 µM

N#C/C(=C\c1ccc(Cl)cc1)n1nnc2cc(F)c(F)cc21
GI50 [1]: 1.7 µM
TGI [1]: 3.2 µM
GI50 [2]: 2.76 µM
TGI [2]: 8.49 µM
GI50 [3]: 2.5 µM
TGI [3]: 5.61 µM
GI50 [4]: 2.19 µM
TGI [4]: > 100 µM
GI50 [5]: 2.17 µM
TGI [5]: 4.86 µM
GI50 [6]: 1.59 µM
TGI [6]: 3.85 µM
GI50 [7]: 1.71 µM
TGI [7]: 3.22 µM
GI50 [8]: 1.9 µM
TGI [8]: 3.81 µM
GI50 [9]: 3.27 µM
TGI [9]: > 100 µM
GI50 [10]: 1.8 µM
TGI [10]: 3.96 µM

O=C(c1cccs1)c1c(C(F)(F)F)n([O-])c2cc(C(F)(F)F)ccc2[n+]1=O
GI50 [1]: 0.22 µM
TGI [1]: 0.628 µM
GI50 [2]: 0.189 µM
TGI [2]: 0.546 µM
GI50 [3]: 0.193 µM
TGI [3]: 0.419 µM
GI50 [4]: 0.0303 µM
TGI [4]: 0.101 µM
GI50 [5]: 0.198 µM
TGI [5]: 0.512 µM
GI50 [6]: 0.294 µM
TGI [6]: 0.738 µM
GI50 [7]: 0.333 µM
TGI [7]: 0.704 µM
GI50 [8]: 0.432 µM
TGI [8]: 1.37 µM
GI50 [9]: 0.263 µM
TGI [9]: 1.48 µM
GI50 [10]: 0.462 µM
TGI [10]: 1.28 µM

C[C@]12CC[C@H]3[C@@H](CC=C4C[C@@H](O)CC[C@@]43C)[C@@H]1C/C(=C\c1cccc(OCCCn3ccnc3)c1)[C@@H]2O
GI50 [1]: 13.8 µM
TGI [1]: 34.5 µM
GI50 [2]: 5.16 µM
TGI [2]: 23.4 µM
GI50 [3]: 3.85 µM
TGI [3]: 18.1 µM
GI50 [4]: 3.38 µM
TGI [4]: > 58.4 µM
GI50 [5]: 13.8 µM
TGI [5]: 31.8 µM
GI50 [6]: 14.6 µM
TGI [6]: 27.7 µM
TGI [7]: 29.9 µM
GI50 [8]: 17.2 µM
TGI [8]: 32.9 µM
GI50 [9]: 14.4 µM
TGI [9]: 43.1 µM
GI50 [10]: 13.2 µM
TGI [10]: 29 µM
